Laboratory results reported in patent US11236041B2, “Type-G crystal form of fenolamine, preparation method, composition and use thereof” (INSTITUTE OF MATARIA MEDICA, CHINESE ACADEMY OF MEDICAL …, priority 2017, dated 2022).

Assay: Stability of solid of type-G fenolamine crystal form (influencing factor experiment)
Format: physicochemical
Details: open watch glass; 60° C., 40° C., and 25° C., relative humidity 90%±5%, illumination 4500 lx±500 lx; 10 days, sampled Days 0, 5, 10; powder X-ray diffraction and gas chromatography
Experimental: Type-G fenolamine crystal form samples were placed in open clean watch glasses, and kept under conditions of a high temperature of 60° C., a high temperature of 40° C., and 25° C., a relative humidity of 90%±5%, and illumination at 4500 lx±500 lx for 10 days, and samples were taken on Days 0, 5, and 10. Powder X-ray diffraction (with a resultant pattern consistent to that in FIG. 1) and gas chromatography means were used for analysis. […] All of the products from Example 1 were subjected to this test and achieved the same effect.

For COc1ccc(OC)c(/C(=C\c2ccc(O)c(OC)c2)C(=O)NCCc2ccc(O)cc2)c1 [type-G fenolamine crystal form, trans-2-(2,5-dimethoxyphenyl)-3-(4-hydroxy-3-methoxyphenyl)-N-(4-hydroxyphenylethyl)-acrylamide], the “stability of the crystal form under conditions of high temperature, high humidity and light illumination” value was “stable”.
